Laboratory results published in US11541028B2, “Peptide pharmaceuticals for treatment of NASH and other disorders” (Mederis Diabetes LLC, priority 2018, dated 2023).

Tested on: db/db mice
Test: Glucose-lowering activity in db/db mice
Format: in vivo
Settings: for time for which elevated blood glucose level was reduced to the normal range: db/db mice, 250 nmol/kg subcutaneously at t=0 and 7 hr (FIG. 9); for db/db Mice-Mean Blood Glucose (mg/dL) 0 hr / db/db Mice-Mean Blood Glucose (mg/dL) 10 hr / db/db Mice-Mean Blood Glucose (mg/dL) 24 hr / db/db Mice-Mean Blood Glucose (mg/dL) 48 hr: dose 250 nmole/kg sc
Description: The 60 female db/db B6BKS (D) Leprdb/J (strain 000697) mice for this study were about 8-9 weeks old at arrival (Jackson Laboratory, Bar Harbor, Me.). […] One group of 8 female mice served as the vehicle control and received the vehicle, 0.2% BSA in saline, pH 7.4. One additional group of 8 female mice received the positive-control compound, liraglutide, at a dose level of 50 nmoles/kg. The test compounds, vehicle and positive-control compound were subcutaneously injected at a dose volume of 6 mL/kg on day 1 at about 0, 7 and 24 hours.
Clinical observations were conducted at receipt, prior to randomization, and daily from days 1 to 5. Body weights were measured and recorded at receipt, prior to randomization, and daily from days 1 to 5. Food consumption was measured and recorded daily from days 1 to 5. Blood samples for glucose analysis were collected pre-study (day −3) and at 0, 1, 2, 4, 8, 10, 24, 48, 72 and 96 hours following the first dose on day 1. At study termination all animals were euthanized, and the carcasses were discarded without further evaluation.

Row | Compound | time for which elevated blood glucose level was reduced to the normal range | db/db Mice-Mean Blood Glucose (mg/dL) 0 hr [mg/dL] | db/db Mice-Mean Blood Glucose (mg/dL) 10 hr [mg/dL] | db/db Mice-Mean Blood Glucose (mg/dL) 24 hr [mg/dL] | db/db Mice-Mean Blood Glucose (mg/dL) 48 hr [mg/dL]
1 | CCCCCCCCCCO[C@@H]1O[C@H](C(=O)NCCCC[C@H](NC(=O)[C@@H](NC(=O)[C@H](Cc2ccccc2)NC(=O)[C@H](CCC(=O)O)NC(=O)[C@@H]2CCCCNC(=O)CC[C@H](NC(=O)[C@H](CC(=O)O)NC(=O)[C@H](CC(C)C)NC(=O)[C@H](Cc3ccc(O)cc3)NC(=O)[C@H](CCCCN)NC(=O)[C@H](CO)NC(=O)[C@H](Cc3ccc(O)cc3)NC(=O)[C@H](CC(=O)O)NC(=O)[C@H](CO)NC(=O)[C@@H](NC(=O)[C@H](Cc3ccccc3)NC(=O)[C@@H](NC(=O)CNC(=O)[C@H](CCC(N)=O)NC(=O)C(C)(C)NC(=O)[C@@H](N)Cc3c[nH]cn3)[C@@H](C)O)[C@@H](C)O)C(=O)N[C@@H](CCC(N)=O)C(=O)N[C@@H](C)C(=O)N[C@@H](C)C(=O)N2)[C@@H](C)CC)C(=O)N[C@@H](Cc2c[nH]c3ccccc23)C(=O)N[C@@H](CC(C)C)C(=O)N[C@@H](CC(C)C)C(=O)N[C@@H](CCC(N)=O)C(=O)N[C@H](C(N)=O)[C@@H](C)O)[C@@H](O)[C@H](O)[C@H]1O [EU-A1167] | around 72 hr | 379 | 171 | 117 | 113
2 | CCCCCCCCO[C@@H]1O[C@H](C(=O)NCCCC[C@H](NC(=O)[C@@H](NC(=O)[C@H](Cc2ccccc2)NC(=O)[C@H](CCC(=O)O)NC(=O)[C@@H]2CCCCNC(=O)CC[C@H](NC(=O)[C@H](CC(=O)O)NC(=O)[C@H](CC(C)C)NC(=O)[C@H](Cc3ccc(O)cc3)NC(=O)[C@H](CCCCN)NC(=O)[C@H](CO)NC(=O)[C@H](Cc3ccc(O)cc3)NC(=O)[C@H](CC(=O)O)NC(=O)[C@H](CO)NC(=O)[C@@H](NC(=O)[C@H](Cc3ccccc3)NC(=O)[C@@H](NC(=O)CNC(=O)[C@H](CCC(N)=O)NC(=O)C(C)(C)NC(=O)[C@@H](N)Cc3c[nH]cn3)[C@@H](C)O)[C@@H](C)O)C(=O)N[C@@H](CCC(N)=O)C(=O)N[C@@H](C)C(=O)N[C@@H](C)C(=O)N2)[C@@H](C)CC)C(=O)N[C@@H](Cc2c[nH]c3ccccc23)C(=O)N[C@@H](CC(C)C)C(=O)N[C@@H](CC(C)C)C(=O)N[C@@H](CCC(N)=O)C(=O)N[C@H](C(N)=O)[C@@H](C)O)[C@@H](O)[C@H](O)[C@H]1O [EU-A992] | around 72 hr | 405 | 104 | 112 | 130
3 | CCCCCCCCCCCO[C@@H]1O[C@H](C(=O)NCCCC[C@H](NC(=O)[C@@H](NC(=O)[C@H](Cc2ccccc2)NC(=O)[C@H](CCC(=O)O)NC(=O)[C@@H]2CCCCNC(=O)CC[C@H](NC(=O)[C@H](CC(=O)O)NC(=O)[C@H](CC(C)C)NC(=O)[C@H](Cc3ccc(O)cc3)NC(=O)[C@H](CCCCN)NC(=O)[C@H](CO)NC(=O)[C@H](Cc3ccc(O)cc3)NC(=O)[C@H](CC(=O)O)NC(=O)[C@H](CO)NC(=O)[C@@H](NC(=O)[C@H](Cc3ccccc3)NC(=O)[C@@H](NC(=O)CNC(=O)[C@H](CCC(N)=O)NC(=O)C(C)(C)NC(=O)[C@@H](N)Cc3c[nH]cn3)[C@@H](C)O)[C@@H](C)O)C(=O)N[C@@H](CCC(N)=O)C(=O)N[C@@H](C)C(=O)N[C@@H](C)C(=O)N2)[C@@H](C)CC)C(=O)N[C@@H](Cc2c[nH]c3ccccc23)C(=O)N[C@@H](CC(C)C)C(=O)N[C@@H](CC(C)C)C(=O)N[C@@H](CCC(N)=O)C(=O)N[C@H](C(N)=O)[C@@H](C)O)[C@@H](O)[C@H](O)[C@H]1O [EU-A1168] | around 72 hr | 380 | 133 | 169 | 164
